Values of other authors in patent publication US11439647B2 (Janssen Pharmaceutica NV, priority 2020, dated 2022).

Compound: CCCCCCCCCCCCCCCC(=O)OC1CCCn2c1nc(C)c(CCN1CCC(c3noc4cc(F)ccc34)CC1)c2=O (racemic) [paliperidone palmitate, (±)-3-[2-[4-(6-fluoro-1,2-benzisoxazol-3-yl)-1-piperidinyl]ethyl]-6,7,8,9-tetrahydro-2-methyl-4-oxo-4H-pyrido[1,2-c]pyrimidin-9-yl hexadecanoate]
- water solubility: extreme low
